Data published in patent publication EP2545917B1, “NOVEL EP4 AGONIST” (Kaken Pharmaceutical Co., Ltd., priority 2010, dated 2011).

How the values were obtained:
Human EP2 = biological target: T1, Human EP2 (Homo sapiens, UniProt P43116); assay: Receptor affinity, tritium-labeled PGE2 binding to membranes of transfected COS-7 cells
T1 construct: expressed in transfected cells; host or cells: COS-7
Description: (§1) PG receptor affinity of compound F and compound J of the present invention was evaluated. Compound F used was one synthesized in Example 9, and compound J was prepared by separating and purifying the compound synthesized in Example 14 with a column (the same preparations were used in the following Examples). COS-7 cells were transfected with the genes of mouse EP4, human EP1-4 or human IP to overexpress the receptor and then the cell membranes were collected. […] The dissociation constant Kd value was obtained and inhibition constant Ki value of each test compound was determined in a conventional method.

Mouse EP4 = biological target: T2, Mouse EP4 (Mus musculus, UniProt P32240); assay: as above
T2 construct: expressed in transfected cells; host or cells: COS-7
T2 sequence (P32240 whole entry): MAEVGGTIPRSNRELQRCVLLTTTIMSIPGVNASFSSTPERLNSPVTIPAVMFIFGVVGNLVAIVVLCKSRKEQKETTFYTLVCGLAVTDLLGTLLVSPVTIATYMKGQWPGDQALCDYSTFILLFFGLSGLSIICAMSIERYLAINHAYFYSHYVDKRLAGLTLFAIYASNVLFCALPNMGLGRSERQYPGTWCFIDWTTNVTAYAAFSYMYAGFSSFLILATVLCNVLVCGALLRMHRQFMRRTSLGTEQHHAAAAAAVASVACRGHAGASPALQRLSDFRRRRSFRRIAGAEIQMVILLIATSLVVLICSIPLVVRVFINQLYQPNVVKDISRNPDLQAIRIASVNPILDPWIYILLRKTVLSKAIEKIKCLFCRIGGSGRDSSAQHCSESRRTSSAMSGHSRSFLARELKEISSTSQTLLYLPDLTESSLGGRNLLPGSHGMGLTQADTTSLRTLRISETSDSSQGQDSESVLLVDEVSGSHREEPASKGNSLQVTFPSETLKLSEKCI
Description: as §1

IL-2 = assay: Suppressive effect on cytokine production, CD4 positive T cells stimulated with anti-CD3 and anti-CD28 antibody, ELISA; assay type: cell-based; conditions: human CD4 positive T cells, anti-CD3/anti-CD28, 24 hr; geometric mean of three volunteers
Description: (§2) Blood was collected from 3 healthy volunteers, and CD4 positive T cells were prepared. […] In both cases, the test compound was added 30 min before stimulation.

TNF-α = assay: as above; assay type: cell-based; conditions: human CD4 positive T cells, anti-CD3/anti-CD28, 24 hr; geometric mean of three volunteers
Description: as §2

Human EP1 = biological target: T3, Human EP1 (Homo sapiens, UniProt P34995); assay: Receptor affinity, tritium-labeled PGE2 binding to membranes of transfected COS-7 cells
T3 construct: expressed in transfected cells; host or cells: COS-7
T3 sequence (P34995 1-402): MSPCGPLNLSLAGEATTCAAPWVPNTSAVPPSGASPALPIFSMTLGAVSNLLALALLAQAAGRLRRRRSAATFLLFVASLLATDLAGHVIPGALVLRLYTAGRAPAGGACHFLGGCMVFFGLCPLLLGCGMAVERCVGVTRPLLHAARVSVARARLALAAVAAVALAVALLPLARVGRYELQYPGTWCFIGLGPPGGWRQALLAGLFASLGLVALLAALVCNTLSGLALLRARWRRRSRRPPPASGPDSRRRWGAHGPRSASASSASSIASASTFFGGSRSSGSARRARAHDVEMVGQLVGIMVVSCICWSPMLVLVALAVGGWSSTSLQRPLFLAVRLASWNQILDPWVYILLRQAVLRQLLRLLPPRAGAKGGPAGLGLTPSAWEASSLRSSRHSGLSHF
Description: (§3) PG receptor affinity of compound F and compound J of the present invention was evaluated. Compound F used was one synthesized in Example 9, and compound J was prepared by separating and purifying the compound synthesized in Example 14 with a column (the same preparations were used in the following Examples). COS-7 cells were transfected with the genes of mouse EP4, human EP1-4 or human IP to overexpress the receptor and then the cell membranes were collected. As a labeled ligand, tritium-labeled PGE2 was used for EPs; tritium-labeled iloprost, for IP. The dissociation constant Kd value was obtained and inhibition constant Ki value of each test compound was determined in a conventional method. As a reference control, PGE2 was used for EPs; beraprost sodium (BPS), for IP.

Human IP = biological target: T4, Human IP (Homo sapiens, UniProt P43119); assay: Receptor affinity, tritium-labeled iloprost binding to membranes of transfected COS-7 cells; conditions: COS-7 cell membranes
T4 construct: expressed in transfected cells; host or cells: COS-7
T4 sequence (P43119 whole entry): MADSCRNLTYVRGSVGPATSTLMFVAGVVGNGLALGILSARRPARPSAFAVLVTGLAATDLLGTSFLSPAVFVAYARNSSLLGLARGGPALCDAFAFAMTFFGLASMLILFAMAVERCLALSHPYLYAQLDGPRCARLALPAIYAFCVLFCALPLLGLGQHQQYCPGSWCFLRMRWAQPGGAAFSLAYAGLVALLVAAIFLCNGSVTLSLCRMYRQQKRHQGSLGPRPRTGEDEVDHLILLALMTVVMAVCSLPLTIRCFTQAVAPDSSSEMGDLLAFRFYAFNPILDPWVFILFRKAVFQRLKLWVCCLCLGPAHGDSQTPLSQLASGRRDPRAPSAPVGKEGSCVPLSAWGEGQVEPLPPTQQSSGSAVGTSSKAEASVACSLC
Description: as §3

[1] = Plasma pharmacokinetics after intravenous administration to rats; assay type: in vivo; conditions: male, rat
Description: To verify the in vivo metabolic stability of the compound of the present invention, plasma pharmacokinetics was evaluated after intravenous administration to rats. Male rats (6 weeks old, body weight 160 - 180 g) were acclimated for 1 week, and the animals diagnosed healthy were used. A mixture of compound F and compound J of the present invention described in Table 1 (F:J = 52:41), and a mixture of carboxylate forms of compound F and compound J (F:J = 54:34), and compound F (synthesized in Example 9) were dissolved in a small amount of ethanol and physiological saline was added to prepare test compound solutions. The test compound solutions were instantaneously administered intravenously at 1 mL/kg from the femoral vein of non-fasting rats under light ether anesthesia. Venous blood was drawn from the tail vein 5, 15, 30, 45, 60, 90 and 120 min after administration. The blood was mixed with heparin and centrifuged (3000 rpm, 4°C, 15 min) to obtain plasma. The plasma compound concentration was determined by the internal standard method using LC-MS/MS. The determination range by this method was from 0.1 to 100 ng/mL. The compound concentrations obtained from each rat were analyzed in a model-independent way using a pharmacokinetics analysis software WinNonlin (ver.3.3), and average ± standard deviation of 3 animals for each group was obtained.

[2] = tested on: Human Platelet Aggregation; assay: Inhibitory effect on ADP-induced platelet aggregation in platelet-rich plasma; assay type: cell-based; conditions: ADP 10 µmol/L, geometric mean of three volunteers
Description: The inhibitory effect of compounds F and J, and carboxylate forms thereof on platelet aggregation was evaluated. The carboxylate forms were prepared by separating and purifying the compound synthesized in Example 15 with a column. Blood was drawn from 3 healthy volunteers using sodium citrate as an anticoagulant, and platelet-rich plasma was prepared. The platelet-rich plasma was treated with physiological saline or test compounds and, 2 min later, platelet aggregation was induced with adenosine diphosphate (ADP, final concentration 10 µmol/L) and recorded with a platelet aggregation measurement apparatus (nephelometry).

[3] = In vitro metabolic stability: β-oxidation reaction in rat liver mitochondria fraction; assay type: in vitro ADME; conditions: parent compound after NADPH-independent β-oxidation reaction, 37°C, 30 min, tested as isomer mixtures, average ± SD of 3 experiments
Description: A mixture of the compound F and compound J of the present invention described in Table 1 (F:J = 52:41, synthesized in Example 14), and a mixture of compounds wherein the tetrazole groups at C-1 of compound F and compound J are respectively substituted by carboxylic acid (referred to as carboxylate form, F:J = 54:34, synthesized in Example 15) were tested.
First, a mitochondria fraction was prepared from the rat liver according to the following Reference A. Then, in reference to the method of […] et al. described in the following References B and C, an NADPH-independent β oxidation reaction was studied. The reaction was carried out at 37°C for 30 min, and stopped with a methanol solution containing a suitable internal standard substance. Each compound was quantified by the internal standard method using a high performance liquid chromatography mass spectrometry apparatus (LC-MS/MS). The compound residual ratio after metabolic reaction of compounds F, J and each carboxylate form thereof in rat mitochondria fraction is shown in the following Table 2 in average ± standard deviation of 3 experiments. Table 2 Residual Ratio of Parent Compound after β-Oxidation Reaction

IP-10 = assay: Suppressive effect on cytokine production, whole blood stimulated with lipopolysaccharide, ELISA; assay type: cell-based; conditions: human whole blood, indometacin, 48 hr, geometric mean of three volunteers
Human EP4 [4] = biological target: T5, Human EP4 (Homo sapiens, UniProt P35408); assay: EP4 agonist activity, CRE-LUC reporter gene in transfected COS-7 cells; assay type: cell-based
T5 construct: expressed in transfected cells; host or cells: COS-7
T5 sequence (P35408 whole entry): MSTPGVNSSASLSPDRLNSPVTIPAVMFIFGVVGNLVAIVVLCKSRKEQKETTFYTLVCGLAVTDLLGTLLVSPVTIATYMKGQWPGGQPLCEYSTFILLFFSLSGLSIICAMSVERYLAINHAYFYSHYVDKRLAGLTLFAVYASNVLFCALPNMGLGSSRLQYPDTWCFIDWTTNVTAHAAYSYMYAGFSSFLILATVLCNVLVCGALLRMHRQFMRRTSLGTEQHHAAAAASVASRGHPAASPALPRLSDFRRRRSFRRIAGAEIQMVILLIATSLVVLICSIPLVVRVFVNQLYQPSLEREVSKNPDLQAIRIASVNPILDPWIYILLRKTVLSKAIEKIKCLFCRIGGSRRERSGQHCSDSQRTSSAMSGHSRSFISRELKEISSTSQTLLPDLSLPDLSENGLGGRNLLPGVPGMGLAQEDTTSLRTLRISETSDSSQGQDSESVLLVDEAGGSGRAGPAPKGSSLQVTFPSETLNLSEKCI
Description: In brief, human EP4 gene and CRE-LUC reporter gene were transfected into COS-7 cells. The cells were treated with a test compound one day later, and incubated for 3 hr. The cells were washed, a luminescence substrate was added, and the luminescence intensity was measured for the agonist activity.

Human EP3 = biological target: T6, Human EP3 (Homo sapiens, UniProt P43115); assay: Receptor affinity, tritium-labeled PGE2 binding to membranes of transfected COS-7 cells
T6 construct: expressed in transfected cells; host or cells: COS-7
T6 sequence (P43115 1-390): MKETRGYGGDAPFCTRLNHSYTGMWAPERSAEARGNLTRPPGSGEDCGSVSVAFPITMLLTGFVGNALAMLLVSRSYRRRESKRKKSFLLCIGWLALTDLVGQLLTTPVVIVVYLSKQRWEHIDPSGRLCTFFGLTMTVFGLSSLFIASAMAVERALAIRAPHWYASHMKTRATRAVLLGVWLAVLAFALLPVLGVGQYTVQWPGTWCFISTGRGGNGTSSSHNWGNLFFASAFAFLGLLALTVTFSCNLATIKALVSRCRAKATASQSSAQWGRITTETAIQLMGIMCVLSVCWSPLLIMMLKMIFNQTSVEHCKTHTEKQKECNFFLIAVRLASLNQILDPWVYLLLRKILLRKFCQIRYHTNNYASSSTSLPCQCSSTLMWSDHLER
Description: (§4) COS-7 cells were transfected with the genes of mouse EP4, human EP1-4 or human IP to overexpress the receptor and then the cell membranes were collected. […] The dissociation constant Kd value was obtained and inhibition constant Ki value of each test compound was determined in a conventional method.

Human EP4 [5] = biological target: T5, Human EP4; assay: as above
Description: as §4

[6] = tested on: dextran sodium sulfate-induced colitis; assay: Dextran sodium sulfate-induced colitis model in mice (C57BL/6); assay type: in vivo; conditions: C57BL/6 mice, DSS, oral 0.3 mg/kg once a day
Description: Female C57BL/6 mice (6 weeks old, Japan SLC) were purchased, acclimated for 1 week and used for the study. Except the normal group, the mice were allowed to freely drink a 3 or 2 w/v% DSS (MP Biochemicals, Lot No. 5653H and 5464H, respectively) solution for 1 week to induce colitis. BPS at a dose of 0.3 mg/kg and compound F at doses of 0.3 and 1 mg/kg were orally administered once a day, daily, from the start day of DSS drinking (day 0) to one day before autopsy (day 9). To the control group was orally administered a solvent (1 vol% ethanol solution) at 10 mL/kg in the same manner. The consistency of the stool was graded from score 0 to 4, with normal (0), partly loose stool (1), loose stool (2) and diarrhea (4). The blood feces was also graded from score 0 to 4, with normal (0), partly blood feces (1), blood feces (2) and blood feces plus proctorrhagia (4). The sum of both grades was defined as the stool score (maximum 8). Furthermore, the length of the large intestine was measured in the same manner as in Example 23. Six to 10 animals were used for each group, and the results are shown in average ± standard deviation.

[7] = tested on: blood pressure and heart rate; assay: Effect on blood pressure and heart rate in mice; assay type: in vivo, ICR mice; conditions: intravenous 0.01 mg/5 mL/kg, isoflurane anesthesia
Description: Male ICR mice (5 weeks old, Japan SLC) were purchased, acclimated for 6 days and used for the test. The animals were treated and measured under isoflurane inhalation anesthesia (anesthesia introduced at 2.5%, maintained at 1.8-2.1%), while body temperature was kept at 37°C with a Heat Controller (ATC-402, Unique Medical Co., Ltd.). A catheter for administration of test compounds was inserted into the left femoral vein, and another catheter was inserted into the right femoral artery and connected to a pressure transducer to record each parameter of hemodynamics.
Compound F, the carboxylate form of compound F and BPS were intravenously administered at a dose of 0.01 mg/5 mL/kg, and the effect on the mean blood pressure and heart rate was evaluated with computer software for the analysis of hemodynamics (Fluclet, Dainippon Sumitomo Pharma Co., Ltd.). To the control group was intravenously administered a solvent (1.2% ethanol solution) at 5 mL/kg in the same manner. The results are expressed as a ratio of change in each parameter before and after the drug administration. Three to 6 animals were used for each group, and the results were expressed as average ± standard deviation.

T1 sequence (P43116 whole entry): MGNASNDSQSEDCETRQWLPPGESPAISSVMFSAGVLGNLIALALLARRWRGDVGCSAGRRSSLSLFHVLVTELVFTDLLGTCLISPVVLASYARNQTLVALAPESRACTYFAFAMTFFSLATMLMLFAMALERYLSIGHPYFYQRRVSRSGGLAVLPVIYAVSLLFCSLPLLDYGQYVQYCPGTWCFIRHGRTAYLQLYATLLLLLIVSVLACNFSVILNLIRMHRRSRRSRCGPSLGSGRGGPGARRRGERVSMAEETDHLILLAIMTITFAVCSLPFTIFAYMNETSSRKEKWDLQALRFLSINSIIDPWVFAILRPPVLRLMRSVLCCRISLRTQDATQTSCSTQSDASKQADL

Row | Compound | Ki (Human EP2) | Ki (Mouse EP4) | IC50 (IL-2) | IC50 (TNF-α) | Ki (Human EP1) | Ki (Human IP) | half-life ([1]; iv, 50 ug/kg) | half-life ([1]; rats, intravenous, summary of Table 3) | IC50 [2] | Residual ratio [3] | IC50 (IP-10) | EC50 (Human EP4 [4]) | Ki (Human EP3) | Ki (Human EP4 [5]) | affinity for binding to human EP4 higher than that to human IP (Human EP4 [5]; ratio of Ki values) | effect on stool score [6] | effect on the shortening of the large intestine [6] | effect on heart rate [7] | maximum decrease ratio of mean blood pressure [7]
1 | Cc1cccc([C@H](C)[C@H](O)/C=C/[C@@H]2[C@@H]3[C@H](C[C@H]2O)O/C(=C\CCCc2nnn[nH]2)C3(F)F)c1 [Compound J, 4-[(Z)-(1S,5R,6R,7R)-6-[(1E,3R,4S)-3-hydroxy-4-(m-tolyl)-1-pentenyl]-7-hydroxy-2-oxa-4,4-difluoro-bicyclo[3.3.0]octan-3-ylidene]-1-(tetrazol-5-yl)butane] | 5400 nM | 590 nM | 64 nM | 89.5 nM | 4600 nM | 3400 nM | 1.28 ± 0.317 h | 1 to 2 h | 2720 nM | 90.1±6.9% | 102 nM | 440 nM | 1500 nM | 83 nM | 40 fold | – | – | – | –
2 | CC#CCC(C)[C@H](O)/C=C/[C@@H]1[C@H]2c3cccc(CCCC(=O)O)c3O[C@H]2C[C@H]1O (mixture of isomers) [BPS, beraprost sodium, reference compound] | 4990 nM | – | – | – | 942 nM | 160 nM | – | – | 36 nM | – | – | > 1000 nM | 946 nM | 6150 nM | – | not effective, but rather showed a tendency toward aggravation of the stool score | no effect on the shortening of the large intestine | on the increase and remained high even after 10 min | 38%
3 | CCCCC[C@H](O)/C=C/[C@H]1[C@H](O)CC(=O)[C@@H]1C/C=C\CCCC(=O)O [PGE2, reference compound] | – | – | 0.062 nM | – | 2.9 nM | – | – | – | – | – | – | – | – | – | – | – | – | – | –
